The target in this test is α7 nAChR subtype (Rattus norvegicus, UniProt Q05941). The test is classed as binding. The conditions noted are these: read-out: KD (saturation curve, one site model).

In patent publication US20070244097A1 (priority 2003, published 2007) one finds Kd data, which are given here for one substance.

Chain of α7 nAChR subtype (Q05941 23-502 limits assumed): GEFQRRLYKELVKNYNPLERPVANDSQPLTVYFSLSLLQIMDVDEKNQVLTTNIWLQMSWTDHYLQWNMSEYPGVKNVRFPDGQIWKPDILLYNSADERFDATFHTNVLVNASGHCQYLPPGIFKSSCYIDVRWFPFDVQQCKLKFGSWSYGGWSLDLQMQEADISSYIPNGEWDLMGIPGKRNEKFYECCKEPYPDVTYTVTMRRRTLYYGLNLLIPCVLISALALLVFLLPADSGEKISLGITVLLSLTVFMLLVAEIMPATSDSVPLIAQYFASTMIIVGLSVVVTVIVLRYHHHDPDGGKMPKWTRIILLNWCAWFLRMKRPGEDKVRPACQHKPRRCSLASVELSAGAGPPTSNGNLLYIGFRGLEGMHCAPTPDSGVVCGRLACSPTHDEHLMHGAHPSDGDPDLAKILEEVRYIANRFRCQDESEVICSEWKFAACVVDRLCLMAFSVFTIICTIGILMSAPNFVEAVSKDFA

For ^125I-α-Bungarotoxin [^125I-α-BTX], the Kd worked out at 1.67 nM.
